{
  "source": "patent US6706740B2",
  "about": "“Fungicidal heterocyclic aromatic amides and their compositions, methods of use and preparation” (Dow AgroSciences LLC, priority 1999, dated 2004)",
  "data": [
    {"test_system": "Magnaporthe grisea (Pyricularia oryzae—PYRIOR)", "assay": "microbe, parasite or virus in culture", "type": "cell-based", "details": "Pyricularia oryzae, read-out: PYRIOR in vitro Growth Inhibition", "units": {"inhibition at 25 ppm": "%"}, "values": [
      {"compound": "Cc1ccnc(C(=O)Nc2ccc(Oc3cccc(C(F)(F)F)c3)cc2)c1O", "note": "[Compound 238]", "inhibition at 25 ppm": "< 80"},
      {"compound": "Cc1nc(O)c(C(=O)NC2CC(C)(C)CC(C)(C)C2)cc1Cl", "note": "[Compound 530]", "inhibition at 25 ppm": "< 80"},
      {"compound": "COc1ccnc(C(=O)Nc2cccc(OC3CC(C)(C)OC(C)(C)C3)c2)c1O", "note": "[Compound 460]", "inhibition at 25 ppm": "< 80"}
    ]},
    {"test_system": "Rhizoctonia solani (RHIZSO)", "assay": "microbe, parasite or virus in culture", "type": "cell-based", "details": "Rhizoctonia solani, read-out: RHIZSO in vitro Growth Inhibition", "units": {"inhibition at 25 ppm": "%"}, "values": [
      {"compound": "Cc1ccnc(C(=O)Nc2ccc(Oc3cccc(C(F)(F)F)c3)cc2)c1O", "note": "[Compound 238]", "inhibition at 25 ppm": "< 80"},
      {"compound": "Cc1nc(O)c(C(=O)NC2CC(C)(C)CC(C)(C)C2)cc1Cl", "note": "[Compound 530]", "inhibition at 25 ppm": "< 80"},
      {"compound": "COc1ccnc(C(=O)Nc2cccc(OC3CC(C)(C)OC(C)(C)C3)c2)c1O", "note": "[Compound 460]", "inhibition at 25 ppm": "< 80"}
    ]},
    {"test_system": "Mycosphaerella graminicola (Septoria tritici—SEPTTR)", "assay": "In vitro fungal growth inhibition, Mycosphaerella graminicola (SEPTTR)", "type": "cell-based", "details": "Zymoseptoria tritici; 25 ppm in growth medium; read-out: SEPTTR in vitro Growth Inhibition", "units": {"inhibition at 25 ppm": "%"}, "values": [
      {"compound": "Cc1ccnc(C(=O)Nc2ccc(Oc3cccc(C(F)(F)F)c3)cc2)c1O", "note": "[Compound 238]", "inhibition at 25 ppm": "< 80"},
      {"compound": "COc1ccnc(C(=O)Nc2cccc(OC3CC(C)(C)OC(C)(C)C3)c2)c1O", "note": "[Compound 460]", "inhibition at 25 ppm": "< 80"}
    ]},
    {"test_system": "Mycosphaerella graminicola (Septoria tritici—SEPTTR)", "assay": "In vitro fungal growth inhibition, Mycosphaerella graminicola (SEPTTR)", "type": "cell-based", "details": "Zymoseptoria tritici; 25 ppm in the growth medium; read-out: SEPTTR in vitro Growth Inhibition", "units": {"inhibition at 25 ppm": "%"}, "values": [
      {"compound": "Cc1nc(O)c(C(=O)NC2CC(C)(C)CC(C)(C)C2)cc1Cl", "note": "[Compound 530]", "inhibition at 25 ppm": "< 80"}
    ]},
    {"test_system": "Stagonospora nodorum (Leptosphaeria nodorum—LEPTNO)", "assay": "In vitro fungal growth inhibition, Stagonospora nodorum (LEPTNO)", "type": "cell-based", "details": "Leptosphaeria; 25 ppm in growth medium; read-out: LEPTNO in vitro Growth Inhibition", "units": {"inhibition at 25 ppm": "%"}, "values": [
      {"compound": "Cc1ccnc(C(=O)Nc2ccc(Oc3cccc(C(F)(F)F)c3)cc2)c1O", "note": "[Compound 238]", "inhibition at 25 ppm": "< 80"},
      {"compound": "COc1ccnc(C(=O)Nc2cccc(OC3CC(C)(C)OC(C)(C)C3)c2)c1O", "note": "[Compound 460]", "inhibition at 25 ppm": "< 80"}
    ]},
    {"test_system": "Stagonospora nodorum (Leptosphaeria nodorum—LEPTNO)", "assay": "In vitro fungal growth inhibition, Stagonospora nodorum (LEPTNO)", "type": "cell-based", "details": "Leptosphaeria; 25 ppm in the growth medium; read-out: LEPTNO in vitro Growth Inhibition", "units": {"inhibition at 25 ppm": "%"}, "values": [
      {"compound": "Cc1nc(O)c(C(=O)NC2CC(C)(C)CC(C)(C)C2)cc1Cl", "note": "[Compound 530]", "inhibition at 25 ppm": "< 80"}
    ]},
    {"test_system": "Ustilago maydis (USTIMA)", "assay": "microbe, parasite or virus in culture", "type": "cell-based", "details": "Mycosarcoma maydis, read-out: USTIMA in vitro Growth Inhibition", "units": {"inhibition at 25 ppm": "%"}, "values": [
      {"compound": "Cc1ccnc(C(=O)Nc2ccc(Oc3cccc(C(F)(F)F)c3)cc2)c1O", "note": "[Compound 238]", "inhibition at 25 ppm": "< 80"},
      {"compound": "Cc1nc(O)c(C(=O)NC2CC(C)(C)CC(C)(C)C2)cc1Cl", "note": "[Compound 530]", "inhibition at 25 ppm": "< 80"},
      {"compound": "COc1ccnc(C(=O)Nc2cccc(OC3CC(C)(C)OC(C)(C)C3)c2)c1O", "note": "[Compound 460]", "inhibition at 25 ppm": "< 80"}
    ]},
    {"test_system": "Phytophthora infestans (PHYTIN)", "assay": "microbe, parasite or virus in culture", "type": "cell-based", "details": "Phytophthora infestans, read-out: PHYTIN in vitro Growth Inhibition", "units": {"inhibition at 25 ppm": "%"}, "values": [
      {"compound": "Cc1ccnc(C(=O)Nc2ccc(Oc3cccc(C(F)(F)F)c3)cc2)c1O", "note": "[Compound 238]", "inhibition at 25 ppm": "< 80"},
      {"compound": "Cc1nc(O)c(C(=O)NC2CC(C)(C)CC(C)(C)C2)cc1Cl", "note": "[Compound 530]", "inhibition at 25 ppm": "< 80"},
      {"compound": "COc1ccnc(C(=O)Nc2cccc(OC3CC(C)(C)OC(C)(C)C3)c2)c1O", "note": "[Compound 460]", "inhibition at 25 ppm": "< 80"}
    ]},
    {"test_system": "Phytophthora infestans—PHYTIN", "assay": "whole plant or invertebrate", "type": "in vivo", "details": "Phytophthora, in Solanum lycopersicum, 24 h, read-out: PHYTIN in vivo 1 Day Protectant", "units": {"pest or weed control at 100 ppm": "%"}, "values": [
      {"compound": "Cc1ccnc(C(=O)Nc2ccc(Oc3cccc(C(F)(F)F)c3)cc2)c1O", "note": "[Compound 238]", "pest or weed control at 100 ppm": "< 25"},
      {"compound": "Cc1nc(O)c(C(=O)NC2CC(C)(C)CC(C)(C)C2)cc1Cl", "note": "[Compound 530]", "pest or weed control at 100 ppm": "< 25"},
      {"compound": "COc1ccnc(C(=O)Nc2cccc(OC3CC(C)(C)OC(C)(C)C3)c2)c1O", "note": "[Compound 460]", "pest or weed control at 100 ppm": "< 25"}
    ]},
    {"test_system": "Puccinia recondita—PUCCRT", "assay": "Brown Rust of Wheat, in vivo whole plant, 24 Hour Protectant", "details": "Puccinia; 100 ppm spray, 24 hour protectant, wheat; control of fungal infection vs untreated plants; read-out: PUCCRT in vivo 1 Day Protectant", "units": {"pest or weed control at 100 ppm": "%"}, "values": [
      {"compound": "Cc1ccnc(C(=O)Nc2ccc(Oc3cccc(C(F)(F)F)c3)cc2)c1O", "note": "[Compound 238]", "pest or weed control at 100 ppm": "< 25"}
    ]},
    {"test_system": "Puccinia recondita—PUCCRT", "assay": "Brown Rust of Wheat, in vivo whole plant, 24 Hour Protectant", "details": "Puccinia; 100 ppm spray, wheat, 24 hour protectant; control of fungal infection vs untreated plants; read-out: PUCCRT in vivo 1 Day Protectant", "units": {"pest or weed control at 100 ppm": "%"}, "values": [
      {"compound": "COc1ccnc(C(=O)Nc2cccc(OC3CC(C)(C)OC(C)(C)C3)c2)c1O", "note": "[Compound 460]", "pest or weed control at 100 ppm": "25 to 74"}
    ]},
    {"test_system": "Puccinia recondita—PUCCRT", "assay": "Brown Rust of Wheat, in vivo whole plant, 24 Hour Protectant", "details": "Puccinia; wheat plants sprayed at 100 ppm, inoculated after 24 hours; control of fungal infection vs untreated plants; read-out: PUCCRT in vivo 1 Day Protectant", "units": {"pest or weed control at 100 ppm": "%"}, "values": [
      {"compound": "Cc1nc(O)c(C(=O)NC2CC(C)(C)CC(C)(C)C2)cc1Cl", "note": "[Compound 530]", "pest or weed control at 100 ppm": "25 to 74"}
    ]},
    {"test_system": "Erysiphe graminis—ERYSGT", "assay": "Powdery Mildew of Wheat, in vivo whole plant, 24 Hour Protectant", "details": "Erysiphe; 100 ppm spray, 24 hour protectant, wheat; control of fungal infection vs untreated plants; read-out: ERYSGT in vivo 1 Day Protectant", "units": {"pest or weed control at 100 ppm": "%"}, "values": [
      {"compound": "Cc1ccnc(C(=O)Nc2ccc(Oc3cccc(C(F)(F)F)c3)cc2)c1O", "note": "[Compound 238]", "pest or weed control at 100 ppm": "< 25"}
    ]},
    {"test_system": "Erysiphe graminis—ERYSGT", "assay": "Powdery Mildew of Wheat, in vivo whole plant, 24 Hour Protectant", "details": "Erysiphe; 100 ppm spray, wheat, 24 hour protectant; control of fungal infection vs untreated plants; read-out: ERYSGT in vivo 1 Day Protectant", "units": {"pest or weed control at 100 ppm": "%"}, "values": [
      {"compound": "COc1ccnc(C(=O)Nc2cccc(OC3CC(C)(C)OC(C)(C)C3)c2)c1O", "note": "[Compound 460]", "pest or weed control at 100 ppm": "25 to 74"}
    ]},
    {"test_system": "Erysiphe graminis—ERYSGT", "assay": "Powdery Mildew of Wheat, in vivo whole plant, 24 Hour Protectant", "details": "Erysiphe; wheat plants sprayed at 100 ppm, inoculated after 24 hours; control of fungal infection vs untreated plants; read-out: ERYSGT in vivo 1 Day Protectant", "units": {"pest or weed control at 100 ppm": "%"}, "values": [
      {"compound": "Cc1nc(O)c(C(=O)NC2CC(C)(C)CC(C)(C)C2)cc1Cl", "note": "[Compound 530]", "pest or weed control at 100 ppm": "< 25"}
    ]},
    {"test_system": "Septoria tritici—SEPTTR", "assay": "Leaf Blotch of Wheat, in vivo whole plant, 24 Hour Protectant", "details": "Zymoseptoria tritici, 24 h, 100 ppm spray, 24 hour protectant, wheat; control of fungal infection vs untreated plants; read-out: SEPTTR in vivo 1 Day Protectant", "units": {"pest or weed control at 100 ppm": "%"}, "values": [
      {"compound": "Cc1ccnc(C(=O)Nc2ccc(Oc3cccc(C(F)(F)F)c3)cc2)c1O", "note": "[Compound 238]", "pest or weed control at 100 ppm": "< 25"}
    ]},
    {"test_system": "Septoria tritici—SEPTTR", "assay": "Leaf Blotch of Wheat, in vivo whole plant, 24 Hour Protectant", "details": "Zymoseptoria tritici, 24 h, 100 ppm spray, wheat, 24 hour protectant; control of fungal infection vs untreated plants; read-out: SEPTTR in vivo 1 Day Protectant", "units": {"pest or weed control at 100 ppm": "%"}, "values": [
      {"compound": "COc1ccnc(C(=O)Nc2cccc(OC3CC(C)(C)OC(C)(C)C3)c2)c1O", "note": "[Compound 460]", "pest or weed control at 100 ppm": "25 to 74"}
    ]},
    {"test_system": "Septoria tritici—SEPTTR", "assay": "Leaf Blotch of Wheat, in vivo whole plant, 24 Hour Protectant", "details": "Zymoseptoria tritici, 24 h, wheat plants sprayed at 100 ppm, inoculated after 24 hours; control of fungal infection vs untreated plants; read-out: SEPTTR in vivo 1 Day Protectant", "units": {"pest or weed control at 100 ppm": "%"}, "values": [
      {"compound": "Cc1nc(O)c(C(=O)NC2CC(C)(C)CC(C)(C)C2)cc1Cl", "note": "[Compound 530]", "pest or weed control at 100 ppm": "25 to 74"}
    ]},
    {"test_system": "Leptosphaeria nodorum—LEPTNO", "assay": "Glume Blotch of Wheat, in vivo whole plant, 24 Hour Protectant", "details": "Leptosphaeria; 100 ppm spray, 24 hour protectant, wheat; control of fungal infection vs untreated plants; read-out: LEPTNO in vivo 1 Day Protectant", "units": {"pest or weed control at 100 ppm": "%"}, "values": [
      {"compound": "Cc1ccnc(C(=O)Nc2ccc(Oc3cccc(C(F)(F)F)c3)cc2)c1O", "note": "[Compound 238]", "pest or weed control at 100 ppm": "25 to 74"}
    ]},
    {"test_system": "Leptosphaeria nodorum—LEPTNO", "assay": "Glume Blotch of Wheat, in vivo whole plant, 24 Hour Protectant", "details": "Leptosphaeria; 100 ppm spray, wheat, 24 hour protectant; control of fungal infection vs untreated plants; read-out: LEPTNO in vivo 1 Day Protectant", "units": {"pest or weed control at 100 ppm": "%"}, "values": [
      {"compound": "COc1ccnc(C(=O)Nc2cccc(OC3CC(C)(C)OC(C)(C)C3)c2)c1O", "note": "[Compound 460]", "pest or weed control at 100 ppm": "25 to 74"}
    ]},
    {"test_system": "Leptosphaeria nodorum—LEPTNO", "assay": "Glume Blotch of Wheat, in vivo whole plant, 24 Hour Protectant", "details": "Leptosphaeria; wheat plants sprayed at 100 ppm, inoculated after 24 hours; control of fungal infection vs untreated plants; read-out: LEPTNO in vivo 1 Day Protectant", "units": {"pest or weed control at 100 ppm": "%"}, "values": [
      {"compound": "Cc1nc(O)c(C(=O)NC2CC(C)(C)CC(C)(C)C2)cc1Cl", "note": "[Compound 530]", "pest or weed control at 100 ppm": "25 to 74"}
    ]},
    {"test_system": "not given", "assay": "not given", "details": "not given", "units": {"melting point": "°C"}, "values": [
      {"compound": "Cc1ccnc(C(=O)Nc2ccc(Oc3cccc(C(F)(F)F)c3)cc2)c1O", "note": "[Compound 238]", "melting point": "105 to 107"},
      {"compound": "Cc1nc(O)c(C(=O)NC2CC(C)(C)CC(C)(C)C2)cc1Cl", "note": "[Compound 530]", "melting point": "329 to 331"},
      {"compound": "COc1ccnc(C(=O)Nc2cccc(OC3CC(C)(C)OC(C)(C)C3)c2)c1O", "note": "[Compound 460]", "melting point": "149 to 153"}
    ]}
  ]
}
